The assay concerns Mus musculus. Briefly: Reduction in Abeta oligomers levels in Tg2576 mouse administered for 4 weeks. Format: functional.

Turning to `NS(=O)(=O)c1cc(C(=O)O)c(NCc2ccco2)cc1Cl` [FUROSEMIDE], the “inhibition (INH)” value stood at 30%.

Source of the values: ChEMBL document CHEMBL3779823, “Structure of amyloid oligomers and their mechanisms of toxicities: Targeting amyloid oligomers using novel therapeutic approaches” (2016).
